According to PMC4824473, “Dose-Response Analysis of Chemotactic Signaling Response in Salmonella typhimurium LT2 upon Exposure to Cysteine / Cystine Redox Pair” (PLoS ONE, 2016):

Target: T1, Tar (Salmonella enterica, UniProt P02941)
T1 construct: native chromosomal full-length receptor, homodimer in mixed receptor arrays; strain TSS868 (LT2 delta-tsr delta-cheY delta-cheZ) with CheZ-CFP/CheY-YFP plasmid pVS88; other native receptors present
Assay: in vivo CheZ-CFP/CheY-YFP FRET of receptor-kinase activity, Hill fit
Format: cell-based
Settings: live delta-tsr cells, motility buffer pH 7.0, room temperature; attractant; Hill coefficient 1.5; other receptors present; about 1% of Cys possibly oxidized to cystine; read-out: half maximum

T1 sequence (P02941 whole entry): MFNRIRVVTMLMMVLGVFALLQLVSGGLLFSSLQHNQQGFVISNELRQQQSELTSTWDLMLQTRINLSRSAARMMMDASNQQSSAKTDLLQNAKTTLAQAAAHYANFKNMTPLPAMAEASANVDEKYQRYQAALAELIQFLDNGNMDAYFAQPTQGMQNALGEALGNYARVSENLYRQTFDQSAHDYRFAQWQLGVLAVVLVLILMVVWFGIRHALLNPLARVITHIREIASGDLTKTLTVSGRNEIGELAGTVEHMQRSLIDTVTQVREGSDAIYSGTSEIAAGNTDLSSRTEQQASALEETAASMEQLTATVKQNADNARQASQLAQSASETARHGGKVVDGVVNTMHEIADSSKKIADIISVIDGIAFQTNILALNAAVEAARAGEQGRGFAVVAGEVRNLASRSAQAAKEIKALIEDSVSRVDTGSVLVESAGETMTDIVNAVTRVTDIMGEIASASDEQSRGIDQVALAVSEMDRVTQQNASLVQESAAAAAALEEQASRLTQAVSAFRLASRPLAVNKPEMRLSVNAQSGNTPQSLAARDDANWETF

N[C@@H](CS)C(=O)O [Cys]
EC50: 128 µM
